Test results published in patent publication US10730864B2, “RAD51 inhibitors and uses thereof” (THE REGENTS OF THE UNIVERSITY OF CALIFORNIA, priority 2015, dated 2020).
Where two headings read alike, the source gives them in different places.

System: triple-negative human breast cancer cell line MDA-MB-468
Test: XTT cell killing / growth inhibition assay, MDA-MB-468
Type: cell-based
Experimental: Standard XTT assays with a four-day drug treatment procedure were performed to measure the dose dependent cytotoxicity of IBR analogs in cultured cells. In brief, cells were plated on 96-well dishes one day before the drug treatment, followed by drug treatment on day 2 and XTT assay on day 6 after drug addition by using a commercial cell proliferation kit (Roche Scientific) following the instructions.
Triplicate sets were measured and compiled for final data presentation.
To test the possibility of inhibiting triple-negative breast cancer, the newly synthesized IBR2 analogues IBR101-124 were screened of their growth inhibition abilities using an XTT assay.

[1] = MDA-MB-468, XTT assay, four-day drug treatment, read-out: IC50
[2] = growth inhibition, raw dataset for SAR analysis
[3] = Homo sapiens, 96 h, MDA-MB-468, XTT assay, four-day drug treatment, read-out: IC50
[4] = Homo sapiens, MDA-MB-468, growth inhibition, raw dataset for SAR analysis, read-out: pIC50 (converted)

Structure (SMILES) | IC50 compared with that of the parental compound IBR2 (in words) (MDA-MB-468) | IC50 [1] [µM] | pIC50 [2] | growth inhibition activity (in words) (MDA-MB-468, XTT assay) | IC50 [3] [µM] | IC50 [4] [µM]
COc1nccc2c(C3c4ccccc4C=CN3S(=O)(=O)Cc3ccccc3)c[nH]c12 (racemic) [IBR123] | significantly lower | 6.3 | 5.20 | – | – | –
O=S(=O)(Cc1ccccc1)N1CCc2ccccc2[C@@H]1c1c[nH]c2ccccc12 [IBR101] | slightly lower | 11.7 | 4.93 | – | – | –
O=S(=O)(Cc1ccccc1)N1CCc2ccccc2[C@H]1c1c[nH]c2ccccc12 [IBR102] | slightly lower | 13.2 | 4.88 | – | – | –
O=S(=O)(Cc1ccccc1F)N1CCc2ccccc2[C@@H]1c1c[nH]c2ccccc12 [IBR103] | slightly lower | 12.7 | 4.90 | – | – | –
O=S(=O)(Cc1ccccc1F)N1CCc2ccccc2[C@H]1c1c[nH]c2ccccc12 [IBR104] | – | 19.2 | 4.72 | – | – | –
O=S(=O)(Cc1cccc(F)c1)N1CCc2ccccc2[C@@H]1c1c[nH]c2ccccc12 [IBR105] | slightly lower | 14.2 | 4.85 | – | – | –
O=S(=O)(Cc1cccc(F)c1)N1CCc2ccccc2[C@H]1c1c[nH]c2ccccc12 [IBR106] | – | 17.2 | 4.76 | – | – | –
O=S(=O)(Cc1ccc(F)cc1)N1CCc2ccccc2[C@@H]1c1c[nH]c2ccccc12 [IBR107] | slightly lower | 11.2 | 4.95 | – | – | –
O=S(=O)(Cc1ccc(F)cc1)N1CCc2ccccc2[C@H]1c1c[nH]c2ccccc12 [IBR108] | – | 25.7 | 4.59 | – | – | –
O=S(=O)(Cc1ccccc1C(F)(F)F)N1CCc2ccccc2[C@@H]1c1c[nH]c2ccccc12 [IBR109] | slightly lower | 14.8 | 4.83 | – | – | –
O=S(=O)(Cc1ccccc1C(F)(F)F)N1CCc2ccccc2[C@H]1c1c[nH]c2ccccc12 [IBR110] | – | 16.7 | 4.78 | – | – | –
O=S(=O)(Cc1cccc(C(F)(F)F)c1)N1CCc2ccccc2[C@@H]1c1c[nH]c2ccccc12 [IBR111] | slightly lower | 11.1 | 4.95 | – | – | –
O=S(=O)(Cc1cccc(C(F)(F)F)c1)N1CCc2ccccc2[C@H]1c1c[nH]c2ccccc12 [IBR112] | – | 22.2 | 4.65 | – | – | –
O=S(=O)(Cc1ccc(C(F)(F)F)cc1)N1CCc2ccccc2[C@@H]1c1c[nH]c2ccccc12 [IBR113] | slightly lower | 13.6 | 4.87 | – | – | –
O=S(=O)(Cc1ccc(C(F)(F)F)cc1)N1CCc2ccccc2[C@H]1c1c[nH]c2ccccc12 [IBR114] | – | 20.7 | 4.68 | – | – | –
O=S(=O)(Cc1ccccc1)N1CC=Cc2ccccc2[C@@H]1c1c[nH]c2ccccc12 [IBR115] | slightly lower | 14.7 | 4.83 | minimal change of activity | – | –
O=S(=O)(Cc1ccccc1)N1CC=Cc2ccccc2[C@H]1c1c[nH]c2ccccc12 [IBR116] | – | > 50 | ≤ 4.30 | almost complete loss of function | – | –
O=S(=O)(Cc1ccccc1)N1CCc2ccccc2[C@@H]1c1n[nH]c2ccccc12 [IBR117, (R)-1-(1H-Indazol-3-yl)-2-phenylmethanesulfonyl-1,2,3,4-tetrahydro-isoquinoline] | significantly lower | – | – | – | 9.5 | 9.55
O=S(=O)(Cc1ccccc1)N1CCc2ccccc2[C@H]1c1n[nH]c2ccccc12 [IBR118, (S)-1-(1H-Indazol-3-yl)-2-phenylmethanesulfonyl-1,2,3,4-tetrahydro-isoquinoline] | slightly lower | – | – | – | 14.3 | 14.5
Nc1ncc([C@@H]2c3ccccc3CCN2S(=O)(=O)Cc2ccccc2)s1 [IBR119, 5-((S)-2-Phenylmethanesulfonyl-1,2,3,4-tetrahydro-isoquinolin-1-yl)thiazol-2-ylamine] | – | – | – | – | > 25 | ≥ 25.1
O=S(=O)(Cc1ccccc1)N1Cc2ccccc2[C@H]1c1c[nH]c2ccccc12 [IBR121, (S)-3-(2-(benzylsulfonyl)isoindolin-1-yl)-1H-indole] | – | – | – | – | > 12 | ≥ 12
COc1cc2c(C3c4ccccc4C=CN3S(=O)(=O)Cc3ccccc3)c[nH]c2cn1 (centres unmarked) [IBR122] | slightly lower | 12.7 | 4.90 | – | – | –
O=S(=O)(Cc1ccccc1)N1C=Cc2ccccc2C1c1c[nH]c2ncccc12 (centres unmarked) [IBR124] | significantly lower | 6.2 | 5.21 | – | – | –
